Laboratory results as given in patent publication US6699656B2, “Treatment and prevention of HIV infection by administration of derivatives of human chorionic gonadotropin” (University of Maryland Biotechnology Institute, priority 1996, dated 2004).
Bridges are numbered along the chain shown (N, C = ends). Where no end group is shown, it is not given here.

Tests used:
KS Y-1 tumors = KS Y-1 tumors induced in immunodeficient mice; format: in vivo; details: treatment from one week after tumor cell injection; peptides 10 μg daily 5 days, hCG APL 100 IU s.c. daily 7 days
Method: The effects of the peptides on KS tumor cells were also evaluated in vivo in the mouse model. To induce KS tumors in the mice, 1×10^6/ml KS Y-1 cells in 50 μl PBS or saline were injected subcutaneously into immunodeficient mice (beige-XID-BNX mice). […] Methods for detection of apoptosis (from tissue biopsies) were used, as described in Lunardi-Iskandar, Y. et al.(1995, Nature 375:64-68). Briefly, the samples were stained in situ for the presence of cells with DNA fragmentation. Tissue slides from formalin-fixed tumors were treated with terminal deoxynucleotide transferase for extension of DNA ends (hydroxyl 3′) and incorporation of digoxigenin-11-dUTP according to the manufacturer's instructions (Oncor, Gaithersburg, Md.). Anti-digoxigenin antibody conjugated with the enzyme peroxidase allowed detection of apoptotic cells that stain brown whereas viable cells stain blue.

HIV-1 [1] = tested on: HIV-1
[2] = tested on: hematopoietic progenitor cells; assay: Hematopoietic progenitor colony assays (CFU-MIX, BFU-e, CFU-GM); format: cell-based; details: bone marrow and cord blood; hCG 200 IU/ml, peptides and subunits 100 μg/ml; 10 days
From the text: Hematopoietic progenitor cells (2×10^5 cell/ml) were isolated from normal bone marrow and cord blood and seeded in methylcellulose. […] Aggregates containing more than 50 cells after 10 days of culture were counted as colonies.

KS Y-1 or KS-SLK cells = assay: KS clonogenic assay; format: cell-based, human; details: 2 KS cell lines; peptides 50 nmoles/ml, CR127 2 nmoles/ml; 10 days
Method: Briefly, the KS Y-1 cells were obtained from mononuclear cells isolated from pleural effusion of an AIDS patient with KS involving the lungs. After the depletion of T lymphocytes, monocytes/macrophages and fibroblasts by the cytotoxicity method, using monoclonal antibodies against CD2, CD3, CD4, CD8, CD10 and CD14 membrane antigens and baby rabbit complement, the cells were cultured in the absence of exogenous growth factors to select for transformed cells.

Kaposi's Sarcoma = details: literature; cited from earlier work
HIV-1 [3] = details: p24 antigen days 3 to 10; peptides 0.05 to 50 nmoles/ml, hCG 0.01 to 1,000 IU, native β-hCG 100 to 1,000 μg
Method: Sequences of the peptides are as follows:
HIV-1 infected cells were treated with the above preparations and the virus was measured.

HIV-1 transgenic mice = format: in vivo

## β-hCG peptide 6-40: β-hCG peptide 6-40, forms the β-core (RPRCRPINATLAVEKEGCPVCITVNTTICAGYCPT; UniProt P0DN86 26-60, looked up, fragment)
KS Y-1 tumors
  effect on KS Y-1 tumors in mice (cell death, thin sections): slight activity

## CC(C)c1nc(CN(C)C(=O)N[C@H](C(=O)N[C@@H](Cc2ccccc2)C[C@H](O)[C@H](Cc2ccccc2)NC(=O)OCc2cncs2)C(C)C)cs1 [Ritonavir]
HIV-1 [1]; Ritonavir added at 22 weeks to ongoing hCG treatment
  CD4+ T cells, patient PH-SPBE: over 300 mm^3

## β-hCG peptide 7-40: β-hCG peptide of amino acids 7-40 (PRCRPINATLAVEKEGCPVCITVNTTICAGYCPT; UniProt P0DN86 27-60, looked up, fragment)
[2]
  growth of hematopoietic progenitors (colonies): little or no effects
KS Y-1 or KS-SLK cells
  anti-KS effect in clonogenic assays (number of colonies): little or no inhibition

## β-hCG peptide 134-144: β-hCG peptide of amino acids 134-144
[2]
  growth of hematopoietic progenitors (colonies): little or no effects
KS Y-1 tumors
  effect on KS Y-1 tumors in mice (cell death, thin sections): inactive

## β-hCG peptide 38-57: β-hCG peptide of amino acids 38-57, overlaps satellin A1 (CPTMTRVLQGVLPALPQVVC; UniProt P0DN86 58-77, looked up, fragment)
[2]
  growth of hematopoietic progenitors (colonies): little or no effects
KS Y-1 tumors
  effect on KS Y-1 tumors in mice (cell death, thin sections): slight activity
KS Y-1 or KS-SLK cells
  anti-KS effect in clonogenic assays (number of colonies): little or no inhibition

## β-hCG peptide 109-145: β-hCG carboxy-terminal peptide of amino acids 109-145 (TCDDPRFQDSSSSKAPPPSLPSPSRLPGPSDTPILPQ)
Kaposi's Sarcoma
  efficacy in the treatment of Kaposi's Sarcoma: efficacious

## β-hCG peptide 34-49: β-hCG peptide of amino acids 34-49 (CAGYCPTMTRVLQGVL; UniProt P0DN86 54-69, looked up, fragment)
[2]
  growth of hematopoietic progenitors (colonies): little or no effects
KS Y-1 tumors
  effect on KS Y-1 tumors in mice (cell death, thin sections): inactive
KS Y-1 or KS-SLK cells
  anti-KS effect in clonogenic assays (number of colonies): little or no inhibition

## β-hCG peptide 123-145: β-hCG peptide of amino acids 123-145
[2]
  growth of hematopoietic progenitors (colonies): little or no effects
KS Y-1 tumors
  effect on KS Y-1 tumors in mice (cell death, thin sections): inactive

## Cys Leu Gln Gly Val Leu Pro Ala Leu Pro Gln Val Val Cys (CLQGVLPALPQVVC; disulfide 1-14 (inferred)) [Satellin A2 peptide]
[2]
  growth of hematopoietic progenitors (colonies): directly promoted
HIV-1 [3]
  inhibition of HIV-1 infection/replication in acutely infected cells: most active
KS Y-1 tumors
  effect on KS Y-1 tumors in mice (cell death, thin sections): extensive cell death
KS Y-1 or KS-SLK cells
  anti-KS effect in clonogenic assays (number of colonies): strongest anti-tumor effects

## β-hCG peptide 74-95: β-hCG peptide of amino acids 74-95 (RGVNPVVSYAVALSCQCALCRR; UniProt P0DN86 94-115, looked up, fragment)
[2]
  growth of hematopoietic progenitors (colonies): little or no effects
HIV-1 [3]
  inhibition of HIV-1 infection/replication in acutely infected cells: little or no effect
KS Y-1 tumors
  effect on KS Y-1 tumors in mice (cell death, thin sections): inactive
KS Y-1 or KS-SLK cells
  anti-KS effect in clonogenic assays (number of colonies): little or no inhibition

## β-hCG peptide 93-100: β-hCG peptide of amino acids 93-100 (CRRSTTDC; UniProt P0DN86 113-120, looked up, fragment)
KS Y-1 tumors
  effect on KS Y-1 tumors in mice (cell death, thin sections): inactive

## TCDDPRFQDSS [β-hCG peptide 109-119]
[2]
  growth of hematopoietic progenitors (colonies): directly promoted
Kaposi's Sarcoma
  efficacy in the treatment of Kaposi's Sarcoma: efficacious
HIV-1 [3]
  inhibition of HIV-1 infection/replication in acutely infected cells: active
KS Y-1 or KS-SLK cells
  anti-KS effect in clonogenic assays (number of colonies): strongest anti-tumor effects

## β-hCG peptide 100-110: β-hCG peptide of amino acids 100-110 (CGGPKDHPLTC; UniProt P0DN86 120-130, looked up, fragment)
[2]
  growth of hematopoietic progenitors (colonies): little or no effects
KS Y-1 tumors
  effect on KS Y-1 tumors in mice (cell death, thin sections): inactive
KS Y-1 or KS-SLK cells
  anti-KS effect in clonogenic assays (number of colonies): little or no inhibition

## α-hCG peptide 88-92: α-hCG peptide of amino acids 88-92 (YYHKS; UniProt P01215 112-116, looked up, fragment)
[2]
  growth of hematopoietic progenitors (colonies): little or no effects
HIV-1 [3]
  inhibition of HIV-1 infection/replication in acutely infected cells: little or no effect
KS Y-1 tumors
  effect on KS Y-1 tumors in mice (cell death, thin sections): inactive
KS Y-1 or KS-SLK cells
  anti-KS effect in clonogenic assays (number of colonies): little or no inhibition

## LQGVLPALPQVVC [β-hCG peptide 45-57]
[2]
  growth of hematopoietic progenitors (colonies): directly promoted
HIV-1 [3]
  inhibition of HIV-1 infection/replication in acutely infected cells: most active
KS Y-1 tumors
  effect on KS Y-1 tumors in mice (cell death, thin sections): extensive cell death
KS Y-1 or KS-SLK cells
  anti-KS effect in clonogenic assays (number of colonies): strongest anti-tumor effects

## β-hCG peptide 55-90: β-hCG peptide 55-90, forms the β-core (VVCNYRDVRFESIRLPGCPRGVNPVVSYAVALSCQC; UniProt P0DN86 75-110, looked up, fragment)
KS Y-1 tumors
  effect on KS Y-1 tumors in mice (cell death, thin sections): slight activity

## β-hCG peptide 57-93: β-hCG peptide of amino acids 57-93 (CNYRDVRFESIRLPGCPRGVNPVVSYAVALSCQCALC; UniProt P0DN86 77-113, looked up, fragment)
[2]
  growth of hematopoietic progenitors (colonies): little or no effects
KS Y-1 tumors
  effect on KS Y-1 tumors in mice (cell death, thin sections): inactive
KS Y-1 or KS-SLK cells
  anti-KS effect in clonogenic assays (number of colonies): little or no inhibition

## Leu Gln Dab(Pro) Val Leu Pro Dab(Pro) Leu Pro Gln Val Val Cys [branched β-hCG 45-57]
HIV-1 transgenic mice; HIV-1 transgenic mice
  hyperkeratosis of the skin / histology: normal histology
HIV-1 transgenic mice; HIV-1 transgenic mice, branched peptide 10 μg to mothers s.c. daily for 10 days
  growth retardation and cachexia: reversal
HIV-1 transgenic mice; all untreated mice died within 10 days, 10 μg to mothers s.c. daily for 10 days
  survival: survived
HIV-1 transgenic mice; pups, 10 μg to mothers s.c. daily for 10 days
  gp120 and nef protein by antibody staining: down regulation

## CC(C)(C)NC(=O)[C@@H]1CN(Cc2cccnc2)CCN1C[C@@H](O)C[C@@H](Cc1ccccc1)C(=O)N[C@H]1c2ccccc2C[C@H]1O [indinavir (Crixivan)]
HIV-1 [1]; indinavir added after hCG induced pulmonary response
  viral load, patient PH-JPV: undetectable viral load

## β-hCG peptide 6-16: β-hCG peptide of amino acids 6-16 (RPRCRPINATL; UniProt P0DN86 26-36, looked up, fragment)
[2]
  growth of hematopoietic progenitors (colonies): little or no effects
HIV-1 [3]
  inhibition of HIV-1 infection/replication in acutely infected cells: little or no effect
KS Y-1 tumors
  effect on KS Y-1 tumors in mice (cell death, thin sections): inactive
KS Y-1 or KS-SLK cells
  anti-KS effect in clonogenic assays (number of colonies): little or no inhibition
